Results: ChEMBL document CHEMBL1147597, “Synthesis and biological evaluations of novel benzimidazoles as potential antibacterial agents” (Bioorg Med Chem Lett, 2004)
pIC50: −log10 of the molar value. Converted amounts (≈) assume the structure as drawn.

How the values were obtained:
Escherichia coli [1] = test: Minimal inhibitory concentration against Escherichia coli; format: functional
Staphylococcus aureus [2] = test: In vitro minimal inhibitory concentration against Staphylococcus aureus.; format: functional
Staphylococcus aureus [3] = test: Minimal inhibitory concentration against Staphylococcus aureus (Range is 50-100 uM); format: functional
Streptococcus pyogenes [4] = test: Minimal inhibitory concentration against gram positive Streptococcus pyogenes 49399 strain (Range is 6-12 uM); format: functional
Pseudomonas aeruginosa = test: Minimal inhibitory concentration against gram negative Pseudomonas aeruginosa 25416 strain (Range is 50-100 uM); format: functional
Klebsiella pneumoniae = test: Minimal inhibitory concentration against gram negative Klebsiella pneumoniae 13383 strain (Range is 25-50 uM); format: functional
Staphylococcus aureus [5] = test: Minimal inhibitory concentration against Staphylococcus aureus (Range is 6-12 uM); format: functional
Enterococcus hirae [6] = test: Minimal inhibitory concentration against gram positive Enterococcus hirae 29212 strain (Range is 1-3 uM); format: functional
Staphylococcus aureus [7] = test: Minimal inhibitory concentration against gram positive Staphylococcus aureus 13709 strain (Range is 6-12 uM); format: functional
Bacteria = test: Inhibitory activity against bacteria in the transcription/translation assay; format: functional, organism-based
Proteus vulgaris = test: Minimal inhibitory concentration against gram negative Proteus vulgaris 8427 strain (Range is 25-50 uM); format: functional
Escherichia coli [8] = test: Minimal inhibitory concentration against gram negative Escherichia coli 25922 strain; format: functional; conditions: ATCC25922
Streptococcus pneumoniae = test: Minimal inhibitory concentration against gram positive Streptococcus pneumoniae 6303 strain (Range is 12-25 uM); format: functional
Staphylococcus aureus [9] = test: Minimal inhibitory concentration against Staphylococcus aureus (Range is 12-50 uM); format: functional
Escherichia coli [10] = test: Minimal inhibitory concentration against Escherichia coli (Range is 25-50 uM); format: functional
Enterococcus hirae [11] = test: Minimal inhibitory concentration against gram positive Enterococcus hirae 29212 strain (Range is 25-50 uM); format: functional
Escherichia coli [12] = test: Minimal inhibitory concentration against gram negative Escherichia coli 25922 strain (Range is 25-50 uM); format: functional; conditions: ATCC25922
Streptococcus pyogenes [13] = test: Minimal inhibitory concentration against gram positive Streptococcus pyogenes 49399 strain (Range is 25-50 uM); format: functional
Escherichia coli [14] = test: Minimal inhibitory concentration against Escherichia coli (Range is 50-100 uM); format: functional
Staphylococcus aureus [15] = test: Minimal inhibitory concentration against Staphylococcus aureus (Range is 25-50 uM); format: functional
Staphylococcus aureus [16] = test: Minimal inhibitory concentration against Staphylococcus aureus (Range is 12-25 uM); format: functional

Structure (SMILES) | MIC (Escherichia coli [1]) [µM] | MIC (Staphylococcus aureus [2]) [µM] | MIC (Staphylococcus aureus [15]) [µM] | further results
O=C(Cn1c(C2CCNCC2)nc2cc(Cl)c(Cl)cc21)NNC(=S)NCCCN1CCOCC1 | > 100 | > 100 | – | –
O=C(Cn1c(C2CCNCC2)nc2cc(Cl)c(Cl)cc21)N/N=C/c1ccncc1 | > 100 | > 100 | – | –
O=C(Cn1c(C2CCNCC2)nc2cc(Cl)c(Cl)cc21)N/N=C/c1cnn(-c2ccccc2)c1Cl | > 100 | – | – | MIC (Streptococcus pyogenes [4]): 12 µM (≈ 6.37 µg/mL); MIC (Pseudomonas aeruginosa): 100 µM (≈ 53.1 µg/mL); MIC (Klebsiella pneumoniae): 50 µM (≈ 26.5 µg/mL); MIC (Staphylococcus aureus [5]): 12 µM (≈ 6.37 µg/mL); MIC (Enterococcus hirae [6]): 3 µM (≈ 1.59 µg/mL); MIC (Staphylococcus aureus [7]): 12 µM (≈ 6.37 µg/mL); pIC50 (Bacteria): < 4.00; MIC (Proteus vulgaris): 50 µM (≈ 26.5 µg/mL); MIC (Escherichia coli [8]): > 100 µM; MIC (Streptococcus pneumoniae): 25 µM (≈ 13.3 µg/mL)
O=C1c2ccccc2C(=O)N1CCCCCn1c(C2CCNCC2)nc2cc(Cl)c(Cl)cc21 | – | – | – | MIC (Pseudomonas aeruginosa): 100 µM (≈ 48.5 µg/mL); MIC (Klebsiella pneumoniae): 50 µM (≈ 24.3 µg/mL); MIC (Staphylococcus aureus [7]): 12 µM (≈ 5.82 µg/mL); MIC (Staphylococcus aureus [9]): 50 µM (≈ 24.3 µg/mL); pIC50 (Bacteria): 4.60; MIC (Proteus vulgaris): 50 µM (≈ 24.3 µg/mL); MIC (Escherichia coli [10]): 50 µM (≈ 24.3 µg/mL); MIC (Enterococcus hirae [11]): 50 µM (≈ 24.3 µg/mL); MIC (Streptococcus pneumoniae): 25 µM (≈ 12.1 µg/mL); MIC (Escherichia coli [12]): 50 µM (≈ 24.3 µg/mL); MIC (Streptococcus pyogenes [13]): 50 µM (≈ 24.3 µg/mL)
O=C(Cn1c(C2CCNCC2)nc2cc(Cl)c(Cl)cc21)NNC(=O)Nc1ccc2c(c1)OCO2 | – | – | 50 (≈ 25.3 µg/mL) | MIC (Escherichia coli [14]): 100 µM (≈ 50.5 µg/mL)
O=C(Cn1c(C2CCNCC2)nc2cc(Cl)c(Cl)cc21)N/N=C/c1cccc(OC(F)(F)F)c1 | > 100 | – | 50 (≈ 25.7 µg/mL) | –
O=C(Cn1c(C2CCNCC2)nc2cc(Cl)c(Cl)cc21)N/N=C/c1c[nH]c2ccccc12 | > 100 | – | 50 (≈ 23.5 µg/mL) | –
Clc1cc2nc(C3CCNCC3)n(CCCCCn3cnc4ccccc43)c2cc1Cl | – | – | – | MIC (Staphylococcus aureus [3]): 100 µM (≈ 45.6 µg/mL); MIC (Escherichia coli [14]): 100 µM (≈ 45.6 µg/mL)
O=C(Cn1c(C2CCNCC2)nc2cc(Cl)c(Cl)cc21)NNC(=O)Nc1ccccc1 | > 100 | – | – | MIC (Staphylococcus aureus [3]): 100 µM (≈ 46.1 µg/mL)
O=C1c2cc(Cl)c(Cl)cc2C(=O)N1CCCCCn1c(C2CCNCC2)nc2cc(Cl)c(Cl)cc21 | – | – | – | MIC (Escherichia coli [14]): 100 µM (≈ 55.4 µg/mL); MIC (Staphylococcus aureus [16]): 25 µM (≈ 13.9 µg/mL)
O=C(Cn1c(C2CCNCC2)nc2cc(Cl)c(Cl)cc21)NNC(=O)Nc1ccccc1-c1ccccc1 | – | – | – | MIC (Escherichia coli [10]): 50 µM (≈ 26.9 µg/mL); MIC (Staphylococcus aureus [16]): 25 µM (≈ 13.4 µg/mL)
O=C(Cn1c(C2CCNCC2)nc2cc(Cl)c(Cl)cc21)N/N=C/c1ccccn1 | > 100 | > 100 | – | –
O=C(Cn1c(C2CCNCC2)nc2cc(Cl)c(Cl)cc21)NNC(=O)Nc1ccc([N+](=O)[O-])cc1 | > 100 | – | 50 (≈ 25.3 µg/mL) | –
O=C(O)CC/N=C(\S)NNC(=O)Cn1c(C2CCNCC2)nc2cc(Cl)c(Cl)cc21 | > 100 | > 100 | – | –
O=C(Cn1c(C2CCNCC2)nc2cc(Cl)c(Cl)cc21)NNC(=S)Nc1ccccc1 | – | – | 50 (≈ 23.9 µg/mL) | MIC (Escherichia coli [14]): 100 µM (≈ 47.7 µg/mL)
CC(C)c1ccc2c(c1)CCC1C(C)(C/N=C(\S)NNC(=O)Cn3c(C4CCNCC4)nc4cc(Cl)c(Cl)cc43)CCC[C@]21C (stereo partly drawn) | – | – | 50 (≈ 33.5 µg/mL) | MIC (Escherichia coli [10]): 50 µM (≈ 33.5 µg/mL)
COc1cc(/C=N/NC(=O)Cn2c(C3CCNCC3)nc3cc(Cl)c(Cl)cc32)cc(O)c1OC | > 100 | – | 50 (≈ 25.3 µg/mL) | –

Further lines, with some results ahead:

MIC (Escherichia coli [1]) [µM] | MIC (Staphylococcus aureus [2]) [µM] | MIC (Staphylococcus aureus [15]) [µM] | Structure (SMILES) | further results
> 100 | > 100 | – | O=C1c2cccc([N+](=O)[O-])c2C(=O)N1CCCCCn1c(C2CCNCC2)nc2cc(Cl)c(Cl)cc21 | –
> 100 | – | – | O=C(Cn1c(C2CCNCC2)nc2cc(Cl)c(Cl)cc21)N/N=C/c1c[nH]cn1 | MIC (Staphylococcus aureus [3]): 100 µM (≈ 42 µg/mL)
> 100 | > 100 | – | Clc1cc2nc(SCCCCn3c(C4CCNCC4)nc4cc(Cl)c(Cl)cc43)[nH]c2cc1Cl | –
> 100 | > 100 | – | Clc1cc2nc(C3CCNCC3)n(CCCCSc3[nH]cnc4ncnc3-4)c2cc1Cl | –
– | – | 50 (≈ 28.2 µg/mL) | O=C1c2cc(Cl)c([N+](=O)[O-])cc2C(=O)N1CCCCCn1c(C2CCNCC2)nc2cc(Cl)c(Cl)cc21 | MIC (Escherichia coli [14]): 100 µM (≈ 56.5 µg/mL)
> 100 | > 100 | – | O=S(=O)(NCCCCCn1c(C2CCNCC2)nc2cc(Cl)c(Cl)cc21)c1ccccc1 | –
– | – | 50 (≈ 29 µg/mL) | Clc1cc2nc(C3CCNCC3)n(CCCn3c(C4CCNCC4)nc4cc(Cl)c(Cl)cc43)c2cc1Cl | MIC (Escherichia coli [10]): 50 µM (≈ 29 µg/mL)
> 100 | > 100 | – | O=C1c2ccccc2C(=O)N1CCCCn1c(C2CCNCC2)nc2cc(Cl)c(Cl)cc21 | –
